Assay results reported in patent US20260297106A1, “SPIROCYCLIC SUBSTITUTED OXOISOINDOLINYL PIPERIDINE-2,6-DIONE COMPOUND” (Bristol-Myers Squibb Company, priority 2023, published 2026).

Assays:
Format in all cases: cell-based
IKZF1 Ikaros = IKZF1 Ikaros (Homo sapiens, UniProt Q13422+Q96SW2); assay: Jurkat Cellular Degradation Assay (IKZF1 Ikaros); set-up: endogenous in cells; details: Jurkat cells, 72 h; for Dmax: human, 100% = no detectable protein remaining, read-out: IKZF1 Ikaros max % deg. observed
Protocol: (§1) Jurkat cells were plated at 80,000 cells/well in 40 μL RPMI+10% FBS in a 384-well cell culture plate prior to using acoustic dispensing technology for adding a compound of interest. Cell cultures were incubated for 72 h at 37° C. and 5% CO2. In order to facilitate analysis, cell cultures were spun down at 200 rpm for 5 min and the supernatant was discarded. After shaking the plate to dislodge the cell pellet, cells were resuspended in 50 μL of Fixation Buffer (eBioscience FoxP3 buffer set 00-5523-00) for 60 min at room temperature. After centrifuging and discarding the supernatant, cells were permeabilized with 50 μL of Permeabilization buffer (eBioscience FoxP3 buffer set 00-5523-00) for 10 min at room temperature. Following permeabilization, cells were spun down and the supernatant was replaced with 20 μL fluorescently labelled antibodies against Helios, Ikaros and Aiolos or corresponding Isotype controls in 1× Permeabilization buffer (Ikaros-Alexa488 [Biolegend, Cat #368408, 1:50], Helios-PE [CST, Cat #29360, 1:50], Aiolos-Alexa647 [Biolegend, Cat #371106 Biolegend, 1:25]) and staining reactions were incubated for 1 h at room temperature while protected from light. Subsequently, 30 μL of 1× Permeabilization buffer was added prior to centrifuging the cells and discarding the supernatant. Stained cells were resuspended in 25 μL of flow cytometry staining buffer [PBS+0.2% bovine serum albumin (BSA)] and analyzed using an Intellicyt Ique Plus flow cytometer.
(§2) Table A-1 lists the maximum observed degradation of the IKZF1 protein, IKZF2 protein, and IKZF3 protein as measured in the Jurkat Cellular Degradation assay. The results in Table A-I were rounded to two digits. In the Jurkat Cellular Degradation assay, a value of 100% indicated no detectable protein remaining or complete degradation of the protein; and a value of 0% indicated no detectable degradation of the protein by the test compound.

IKZF3 Aiolos = IKZF3 Aiolos (Homo sapiens, UniProt Q96SW2+Q9UKT9); assay: Jurkat Cellular Degradation Assay (IKZF3 Aiolos); set-up: endogenous in cells; details: Jurkat cells, 72 h; for Dmax: human, 100% = no detectable protein remaining, read-out: IKZF3 Aiolos max % deg. observed
Protocol: as §1, §2

IKZF2 Helios = IKZF2 Helios (Homo sapiens, UniProt Q96SW2+Q9UKS7); assay: Human Regulatory T Cell Degradation Assay (IKZF2 Helios); set-up: T cells were isolated from fresh healthy leukopaks; endogenous in cells; host or cells: FACS-sorted primary human CD4+ CD127low CD25+ Treg cells from healthy leukopaks; details: human regulatory T cells, 20 hours; for Dmax: Regulatory T cell, 100% = no detectable protein remaining, read-out: IKZF2 Helios max % deg. observed; for DC50: concentration reducing protein level by 50% vs DMSO
Protocol: Cryopreserved human regulatory T cells were thawed in RPMI+10% FBS+20 ng/mL IL-2. After being spun at 1200 rpm for 5 mins, the cells were resuspended in RPMI+10% FBS+20 ng/ml and rested at 37° C. with 5% CO2 for 3 hours. The cells were then plated at 40,000 cells/well in 40 μL RPMI+10% FBS+20 ng/ml human IL~2 in a 384 well cell culture plate prior to using acoustic dispensing technology (ECHO 555) for adding compounds of interest. Cell cultures were incubated for 20 hours at 37° C. and 5% CO2. In order to facilitate analysis, cell cultures were spun down at 1200 rpm for 5 minutes and the supernatant was discarded using an EL406 plate washer. After washing three times with 70 μL PBS, cell pellets were resuspended in 50 μL of near IR viability staining solution (Life Technologies, Cat #L34975) and incubated for 30 minutes on ice protected from light. Cells were washed three times with 70 μL PBS+0.5% BSA using an EL406 plate washer. After shaking the plate to dislodge the cell pellet, cells were resuspended in 50 μL of Fixation Buffer (eBioScience FoxP3 buffer set 00-5523-00) for 60 minutes at room temperature. After centrifuging and discarding the supernatant, cells were permeabilized with 50 μL of permeabilization buffer (eBioScience FoxP3 buffer set 00-5523-00) for 10 minutes at room temperature. Following permeabilization, cells were spun down and the supernatant was replaced with 30 μL fluorescently labelled antibodies against the intracellular targets Helios (Helios-APC [BioLegend, Cat #137222, 1:50])]), Aiolos, and Ikaros Ix Permeabilization buffer and staining reactions were incubated for 1 hour at room temperature; protected from light. Subsequently, 30 μL of 1× Permeabilization buffer was added prior to centrifuging the cells and discarding the supernatant. Stained cells were resuspended in 30 μL of flow cytometry staining buffer (PBS+0.5% BSA) and analyzed using an Intellicyt Ique Plus flow cytometer.
Table B-1 lists the maximum observed degradation of the IKZF1 protein and IKZF2 protein as measured in the Human Regulatory Cell T Degradation assay. The results in Table B-1 were rounded to two digits. In the Human Regulatory T Cell Degradation assay, a value of 100% indicated no detectable protein remaining or complete degradation of the protein; and a value of 0% indicated no detectable degradation of the protein by the test compound.

[1] = concentration reducing protein level by 50% vs DMSO

Sequence of IKZF1 Ikaros (Q13422 whole entry): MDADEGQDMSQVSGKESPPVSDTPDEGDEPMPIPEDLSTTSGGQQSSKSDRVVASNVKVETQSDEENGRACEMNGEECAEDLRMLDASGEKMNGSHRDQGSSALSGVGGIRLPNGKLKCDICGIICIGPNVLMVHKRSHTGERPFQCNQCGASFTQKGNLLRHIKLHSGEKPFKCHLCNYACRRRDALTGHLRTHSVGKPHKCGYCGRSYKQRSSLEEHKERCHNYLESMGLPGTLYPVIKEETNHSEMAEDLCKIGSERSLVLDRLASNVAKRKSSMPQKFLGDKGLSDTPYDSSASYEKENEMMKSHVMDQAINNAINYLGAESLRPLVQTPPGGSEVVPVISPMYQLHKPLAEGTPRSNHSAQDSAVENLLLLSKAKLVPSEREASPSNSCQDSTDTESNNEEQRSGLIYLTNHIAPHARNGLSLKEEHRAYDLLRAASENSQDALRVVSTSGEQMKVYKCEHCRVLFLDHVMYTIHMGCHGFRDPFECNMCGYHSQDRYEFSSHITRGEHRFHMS
Sequence of IKZF1 Ikaros (Q96SW2 whole entry): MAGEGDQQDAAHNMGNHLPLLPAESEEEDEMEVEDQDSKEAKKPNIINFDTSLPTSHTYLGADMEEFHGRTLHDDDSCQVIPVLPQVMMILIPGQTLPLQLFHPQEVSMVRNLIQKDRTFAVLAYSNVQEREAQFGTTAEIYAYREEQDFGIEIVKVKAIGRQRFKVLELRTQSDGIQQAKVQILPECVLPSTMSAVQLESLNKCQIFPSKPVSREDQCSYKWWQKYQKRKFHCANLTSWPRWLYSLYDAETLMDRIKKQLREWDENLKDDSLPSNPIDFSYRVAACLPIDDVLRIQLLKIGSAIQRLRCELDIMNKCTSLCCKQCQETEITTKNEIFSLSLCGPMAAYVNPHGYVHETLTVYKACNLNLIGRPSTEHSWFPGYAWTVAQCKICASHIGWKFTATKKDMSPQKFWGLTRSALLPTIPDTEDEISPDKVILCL
Sequence of IKZF1 Ikaros (Q16531 whole entry partner): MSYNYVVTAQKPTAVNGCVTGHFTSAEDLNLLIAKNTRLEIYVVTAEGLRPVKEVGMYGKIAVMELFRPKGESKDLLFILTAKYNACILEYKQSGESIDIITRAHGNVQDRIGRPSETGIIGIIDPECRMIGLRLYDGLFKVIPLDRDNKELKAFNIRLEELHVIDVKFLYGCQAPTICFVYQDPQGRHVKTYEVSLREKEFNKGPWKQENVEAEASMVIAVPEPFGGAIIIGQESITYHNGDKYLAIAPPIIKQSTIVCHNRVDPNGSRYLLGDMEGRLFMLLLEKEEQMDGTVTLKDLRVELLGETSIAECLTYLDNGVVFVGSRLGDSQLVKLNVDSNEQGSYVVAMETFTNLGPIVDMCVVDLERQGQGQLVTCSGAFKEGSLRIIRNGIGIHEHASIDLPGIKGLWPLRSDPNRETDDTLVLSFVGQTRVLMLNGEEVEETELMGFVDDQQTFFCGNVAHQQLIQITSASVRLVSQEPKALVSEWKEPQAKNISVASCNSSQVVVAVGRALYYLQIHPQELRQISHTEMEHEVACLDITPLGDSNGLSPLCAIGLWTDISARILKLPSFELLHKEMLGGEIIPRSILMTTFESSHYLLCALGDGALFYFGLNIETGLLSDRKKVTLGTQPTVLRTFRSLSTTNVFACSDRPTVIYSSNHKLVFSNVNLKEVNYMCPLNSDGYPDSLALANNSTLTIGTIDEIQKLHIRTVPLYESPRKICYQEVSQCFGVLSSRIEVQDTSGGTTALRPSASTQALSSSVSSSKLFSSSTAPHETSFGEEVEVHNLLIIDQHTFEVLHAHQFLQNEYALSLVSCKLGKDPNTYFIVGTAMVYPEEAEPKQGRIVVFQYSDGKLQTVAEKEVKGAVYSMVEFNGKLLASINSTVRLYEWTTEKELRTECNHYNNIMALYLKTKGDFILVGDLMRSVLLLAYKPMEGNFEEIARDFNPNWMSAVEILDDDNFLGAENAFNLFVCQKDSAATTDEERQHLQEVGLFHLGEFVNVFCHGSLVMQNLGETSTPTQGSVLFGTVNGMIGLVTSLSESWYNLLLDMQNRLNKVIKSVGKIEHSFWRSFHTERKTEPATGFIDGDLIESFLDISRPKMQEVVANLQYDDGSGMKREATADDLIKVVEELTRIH
Sequence of IKZF2 Helios (Q9UKS7 whole entry): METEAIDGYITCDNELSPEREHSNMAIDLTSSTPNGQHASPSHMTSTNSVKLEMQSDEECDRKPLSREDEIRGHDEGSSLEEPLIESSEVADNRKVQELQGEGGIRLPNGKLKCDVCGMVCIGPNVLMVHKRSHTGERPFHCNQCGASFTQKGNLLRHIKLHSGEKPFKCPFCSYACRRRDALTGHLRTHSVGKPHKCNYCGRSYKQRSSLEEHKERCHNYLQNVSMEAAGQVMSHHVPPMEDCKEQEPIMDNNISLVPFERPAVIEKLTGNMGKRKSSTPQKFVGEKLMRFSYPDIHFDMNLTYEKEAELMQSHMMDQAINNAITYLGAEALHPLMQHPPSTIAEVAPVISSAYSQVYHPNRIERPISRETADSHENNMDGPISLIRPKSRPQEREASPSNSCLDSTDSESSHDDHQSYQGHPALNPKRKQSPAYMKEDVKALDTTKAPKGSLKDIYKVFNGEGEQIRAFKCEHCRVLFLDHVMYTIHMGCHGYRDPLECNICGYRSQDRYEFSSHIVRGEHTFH
Sequence of IKZF2 Helios (Q96SW2 whole entry): as the sequence (Q96SW2 whole entry) above
Sequence of IKZF2 Helios (Q16531 whole entry partner): as the sequence (Q16531 whole entry partner) above
Sequence of IKZF3 Aiolos (Q9UKT9 whole entry): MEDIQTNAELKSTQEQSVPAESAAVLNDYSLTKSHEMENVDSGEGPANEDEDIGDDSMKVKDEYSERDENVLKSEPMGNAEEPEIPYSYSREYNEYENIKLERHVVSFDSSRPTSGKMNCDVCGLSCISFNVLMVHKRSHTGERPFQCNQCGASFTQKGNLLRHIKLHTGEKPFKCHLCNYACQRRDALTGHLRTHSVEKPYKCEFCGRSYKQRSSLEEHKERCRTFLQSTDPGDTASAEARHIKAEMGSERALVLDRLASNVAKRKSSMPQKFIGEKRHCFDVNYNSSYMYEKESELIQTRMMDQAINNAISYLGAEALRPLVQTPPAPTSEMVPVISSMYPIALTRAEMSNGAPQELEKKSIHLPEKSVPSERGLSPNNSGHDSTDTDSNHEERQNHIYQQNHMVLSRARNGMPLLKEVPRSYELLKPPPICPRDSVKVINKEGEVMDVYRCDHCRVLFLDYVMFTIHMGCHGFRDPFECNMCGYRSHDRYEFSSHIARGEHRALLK
Sequence of IKZF3 Aiolos (Q96SW2 whole entry): as the sequence (Q96SW2 whole entry) above
Sequence of IKZF3 Aiolos (Q16531 whole entry partner): as the sequence (Q16531 whole entry partner) above

Dmax (IKZF1 Ikaros) | Dmax (IKZF3 Aiolos) | Dmax (IKZF2 Helios) | DC50 (IKZF2 Helios) | DC50 (IKZF1 Ikaros; [1]) | DC50 (IKZF3 Aiolos; [1]) | SMILES
13% | 14% | 101% | 2.9 nM | – | – | O=C1CCC(N2Cc3c(ccc(-c4cc(CN5CC(c6ccccc6)C5)ccn4)c3F)C2=O)C(=O)N1 (centres unmarked) [Comparative Compound A, 3-(4-fluoro-1-oxo-5-(4-((3-phenylazetidin-1-yl)methyl)pyridin-2-yl)isoindolin-2-yl) piperidine-2,6-dione]
48% | 28% | 97% | 11 nM | – | – | Nc1nc(-c2ccc3c(c2)CN(C2CCC(=O)NC2=O)C3=O)ccc1CN1CC2(CCC2)C1 (centres unmarked) [Comparative Compound B, 3-(5-(5-((2-azaspiro[3.3]heptan-2-yl)methyl)-6-aminopyridin-2-yl)-1-oxoisoindolin-2-yl) piperidine-2,6-dione]
53% | 33% | 100% | 10 nM | 6440 nM | > 10000 nM | Nc1nc(-c2ccc3c(c2F)CN(C2CCC(=O)NC2=O)C3=O)ccc1CN1CC2(CCCOC2)C1 (centres unmarked) [Example 1, 3-(5-(5-((6-oxa-2-azaspiro[3.5]nonan-2-yl)methyl)-6-aminopyridin-2-yl)-4-fluoro-1-oxoisoindolin-2-yl) piperidine-2,6-dione]
